# Source: ChEMBL document CHEMBL1201862, “PubChem BioAssay data set” (2004)
#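 Test compounds were applied to cells in 96-well plates for 48 hours at 5 doses. GI50: concentration for 50% inhibition of growth.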 Calls of active or inactive are those of the source. Cut-off read from the data, not from the text of the source: active = GI50 up to about 1.1 µM and inactive = higher.
# Columns and labels:
# Experiment in all cases: growth of human tumour cells (NCI), 48 h
# OVCAR-5 = system: OVCAR-5
# SK-MEL-2 = system: SK-MEL-2
# TK-10 = system: TK-10
# SK-OV-3 = system: SK-OV-3
# KM12 = system: KM12
# Malme-3M = system: Malme-3M
# SN12C = system: SN12C
# NCI-H23 = system: NCI-H23
# MOLT-4 = system: MOLT-4
# A549 = system: A549
# M14 = system: M14
# SK-MEL-5 = system: SK-MEL-5
# CAKI-1 = system: CAKI-1
# SF-295 = system: SF-295
# CCRF-CEM = system: CCRF-CEM
# SF-268 = system: SF-268
# SNB-19 = system: SNB-19
# MCF7 = system: MCF7
# MDA-MB-435 = system: MDA-MB-435
# Hs-578T = system: Hs-578T
Compound,GI50 (OVCAR-5),GI50 (SK-MEL-2),GI50 (TK-10),GI50 (SK-OV-3),GI50 (KM12),GI50 (Malme-3M),GI50 (SN12C),GI50 (NCI-H23),GI50 (MOLT-4),GI50 (A549),GI50 (M14),GI50 (SK-MEL-5),GI50 (CAKI-1),GI50 (SF-295),GI50 (CCRF-CEM),GI50 (SF-268),GI50 (SNB-19),GI50 (MCF7),GI50 (MDA-MB-435),GI50 (Hs-578T)
COc1cccc(/C=N/NC(N)=O)c1O,> 100 µM (inactive),> 100 µM (inactive),> 100 µM (inactive),> 100 µM (inactive),> 100 µM (inactive),> 100 µM (inactive),> 100 µM (inactive),> 100 µM (inactive),> 100 µM (inactive),> 100 µM (inactive),> 100 µM (inactive),> 100 µM (inactive),> 100 µM (inactive),> 100 µM (inactive),> 100 µM (inactive),> 100 µM (inactive),> 100 µM (inactive),,,
Cc1cc(Cl)ccc1N1C(=O)C(=O)C(c2nc3ccccc3s2)C(=O)C1=O,> 100 µM (inactive),> 100 µM (inactive),> 100 µM (inactive),> 100 µM (inactive),> 100 µM (inactive),> 100 µM (inactive),> 100 µM (inactive),> 100 µM (inactive),> 100 µM (inactive),> 100 µM (inactive),> 100 µM (inactive),> 100 µM (inactive),> 100 µM (inactive),> 100 µM (inactive),> 100 µM (inactive),> 100 µM (inactive),> 100 µM (inactive),,,
COc1ccc2c(c1)C(=O)Cc1ccccc1CC2,> 100 µM (inactive),81.5 µM (inactive),> 100 µM (inactive),> 100 µM (inactive),> 100 µM (inactive),> 100 µM (inactive),> 100 µM (inactive),> 100 µM (inactive),> 100 µM (inactive),> 100 µM (inactive),> 100 µM (inactive),> 100 µM (inactive),> 100 µM (inactive),> 100 µM (inactive),> 100 µM (inactive),> 100 µM (inactive),> 100 µM (inactive),,,
CC(C)(C)C1CC[C@H](O)[C@H]([C@@H](O)CC2CC(=O)N(c3ccccc3)C(=O)C2)C1 (some centres not stated),> 100 µM (inactive),,> 100 µM (inactive),,47.5 µM (inactive),65.5 µM (inactive),> 100 µM (inactive),> 100 µM (inactive),38.9 µM (inactive),67.5 µM (inactive),43.8 µM (inactive),45.2 µM (inactive),> 100 µM (inactive),> 100 µM (inactive),51.9 µM (inactive),> 100 µM (inactive),> 100 µM (inactive),44.2 µM (inactive),55.2 µM (inactive),> 100 µM (inactive)
COCCOCOc1ccc(OCOCCOC)c2c1C(=O)c1ccccc1C2=O,> 100 µM (inactive),> 74.1 µM (inactive),> 73.6 µM (inactive),> 100 µM (inactive),> 75.9 µM (inactive),41.5 µM (inactive),51.4 µM (inactive),74.1 µM (inactive),21.6 µM (inactive),46.6 µM (inactive),> 100 µM (inactive),51.8 µM (inactive),33.7 µM (inactive),> 100 µM (inactive),27 µM (inactive),31.3 µM (inactive),> 87.9 µM (inactive),,,
COc1cc(-c2cc(CCC(=O)Nc3ccccc3[N+](=O)[O-])n(-c3ccc([N+](=O)[O-])cc3[N+](=O)[O-])n2)ccc1O,> 10 µM (inactive),> 10 µM (inactive),> 10 µM (inactive),> 10 µM (inactive),> 10 µM (inactive),> 10 µM (inactive),> 10 µM (inactive),> 10 µM (inactive),> 10 µM (inactive),> 10 µM (inactive),> 10 µM (inactive),> 10 µM (inactive),> 10 µM (inactive),> 10 µM (inactive),> 10 µM (inactive),> 10 µM (inactive),> 10 µM (inactive),,,
Cc1nc2ccccc2c(=O)n1/N=C(\N=N\c1ccccc1)c1ccccc1Cl,> 100 µM (inactive),20.7 µM (inactive),38.9 µM (inactive),11.2 µM (inactive),41.4 µM (inactive),53 µM (inactive),32.4 µM (inactive),27.7 µM (inactive),14.8 µM (inactive),52.5 µM (inactive),> 86.7 µM (inactive),38.3 µM (inactive),25.4 µM (inactive),1.04 µM (active),26.7 µM (inactive),39 µM (inactive),48.1 µM (inactive),,,
COc1cccc(N2C(=O)C3C4C=C5c6ccccc6N(c6ccccc6)C5(C3C2=O)[C@H]2C(=O)N(c3cccc(OC)c3)C(=O)[C@@H]42)c1 (some centres not stated),> 100 µM (inactive),> 100 µM (inactive),> 100 µM (inactive),> 100 µM (inactive),> 100 µM (inactive),> 100 µM (inactive),> 100 µM (inactive),> 100 µM (inactive),> 100 µM (inactive),> 100 µM (inactive),> 100 µM (inactive),> 100 µM (inactive),> 100 µM (inactive),> 100 µM (inactive),> 100 µM (inactive),> 100 µM (inactive),> 100 µM (inactive),,,
